From publication PMC6946680, “Modulation of brain cation-Cl^− cotransport via the SPAK kinase inhibitor ZT-1a” (Nature Communications, 2020)
“And” between values parts separate entries of the source, which are not always exact repeats. Identical values can stand only once.

Columns and labels:
[1] = test system: KCC3 pThr991; test: Immunoblot of KCC site 1 phosphorylation (KCC3 Thr991) in HEK-293 cells transfected with FLAG-KCC3; assay type: cell-based, human
[2] = test system: NKCC1 pThr203/207/212; test: Immunoblot of NKCC1 p-Thr203/Thr207/Thr212 in HEK-293 cells; assay type: cell-based, human
Protocol: (§1) Band intensities were quantitated with ImageJ software. ***p < 0.001; **p < 0.01; *p < 0.05; ns, nonsignificant [by one-way ANOVA with post hoc testing (n = 6, error bars represent the mean ± SEM)].
(§2) Thirty-six hours post transfection, cells were stimulated with either control isotonic or hypotonic medium for a period of 30 min. […] Protein concentrations were determined using the Bradford method. Cells were treated with the indicated concentrations of the SPAK/OSR1 inhibitors.

[3] = test system: SPAK pSer373; test: Immunoblot of SPAK/OSR1 p-Ser373/Ser325 in HEK-293 cells; assay type: cell-based, human
Protocol: as §1, §2

[4] = test system: KCC3 pThr1048; test: Immunoblot of KCC site 2 phosphorylation (KCC3 Thr1048) in HEK-293 cells transfected with FLAG-KCC3; assay type: cell-based, human
[5] = target: T1, GST–[T233E]SPAK kinase (Homo sapiens, UniProt Q9UEW8, T231E); test: SPAK kinase assay with CATCHtide and IC50 determination; assay type: biochemical
T1 construct: made in house; host or cells: E. coli
From the text: II. Experimental procedures
1. Reagents and General methods
Tissue culture reagents were from Life Technologies. P81 phosphocellulose paper was from Whatman […]
and [γ-32P]-ATP was from Perkin Elmer. […] Protein G […]
sepharose was from Amersham. DNA constructs used for transfection were purified from Escherichia coli DH5α using Qiagen or Invitrogen plasmid Maxi kits according to the manufacturer's protocol. All DNA constructs were verified by DNA sequencing.
2. Plasmids, protein expression and purification
DNA clones were from the Division of Signal Transduction Therapy (University of Dundee). The SPAK proteins were expressed in E. Coli and purified as described previously 1.
3. SPAK kinase assays and IC50 determination
SPAK kinase assays employed CATCHtide (cation chloride co-transporter peptide substrate). Peptide kinase assays, performed in triplicate, were set up in a total volume of 50 μl containing 0.5 μg GST– […]
cpm/pmol) and the indicated concentrations of inhibitor dissolved in DMSO. After incubation for 30 min at 30°C, reactions were terminated by spotting 40 μl of the reaction mix onto P81 phosphocellulose paper and immersion in 50 mM phosphoric acid. The papers were washed extensively and incorporation of [γ-32P]ATP into CATCHtide was quantified by Cerenkov counting.
IC50 values were calculated with GraphPad Prism using non-linear regression analysis.
4. Fluorescence polarization […]
concentrations between 0.00001 to 1 mM. Data points are the means of three determinations, with error […]
A Supplemental Fig. 7 Effects of increasing concentrations of ZT-1a on SPAK activity in the absence […]
the absence or presence of five-fold molar excess of wild-type MO25α. b Kinetic data determined for B ZT-1a in the absence or presence of five-fold molar excess of wild-type MO25α. Data are means of […]
presence of wild-type MO25α.

[6] = Hypotonic low Cl, compound concentration 1 (unit not given)
[7] = Hypotonic low Cl, compound concentration 3 (unit not given)
[8] = Hypotonic low Cl, compound concentration 10 (unit not given)
[9] = Isotonic control, compound concentration 1 (unit not given)
[10] = Isotonic control, compound concentration 3 (unit not given)
[11] = Isotonic control, compound concentration 10 (unit not given)

SMILES: Cc1cc(C(C#N)c2ccc(Cl)cc2)c(Cl)cc1NC(=O)c1cc(F)ccc1O (stereo not shown) [ZT-1g]
- Site-1 phospho / KCC [1, 6]: 1.44 and 1.512 and 1.37 and 1.612
- Site-1 phospho / KCC [1, 7]: 1.67 and 1.55 and 1.71 and 1.58
- Site-1 phospho / KCC [1, 8]: 1.28 and 1.109 and 1.16 and 1.25
- Site-1 phospho / KCC [1, 9]: 1.31 and 1.461 and 1.597 and 1.37
- Site-1 phospho / KCC [1, 10]: 1.16 and 1.27 and 1.05 and 1.23
- Site-1 phospho / KCC [1, 11]: 0.79 and 0.93 and 0.85 and 0.712
- pThrNKCC1 / NKCC1 [2, 6]: 0.41 and 0.38 and 0.36 and 0.43
- pThrNKCC1 / NKCC1 [2, 7]: 0.21 and 0.19 and 0.176 and 0.196
- pThrNKCC1 / NKCC1 [2, 8]: 0.1 and 0.064 and 0.089 and 0.097
- pThrNKCC1 / NKCC1 [2, 9]: 0.306 and 0.28 and 0.251 and 0.293
- pThrNKCC1 / NKCC1 [2, 10]: 0.167 and 0.134 and 0.121 and 0.172
- pThrNKCC1 / NKCC1 [2, 11]: 0.035 and 0.039 and 0.045 and 0.032
- pSer373 / SPAK [3, 6]: 0.101 and 0.097 and 0.112 and 0.0903
- pSer373 / SPAK [3, 7]: 0.058 and 0.071 and 0.066 and 0.078
- pSer373 / SPAK [3, 8]: 0.044 and 0.027 and 0.035 and 0.041
- pSer373 / SPAK [3, 9]: 0.034 and 0.041 and 0.029 and 0.046
- pSer373 / SPAK [3, 11]: 0.017 and 0.015 and 0.013 and 0.016
- Site-2 phospho / KCC [4, 6]: 0.321 and 0.39 and 0.36 and 0.315
- Site-2 phospho / KCC [4, 7]: 0.263 and 0.275 and 0.22 and 0.253
- Site-2 phospho / KCC [4, 8]: 0.1 and 0.116 and 0.092 and 0.107
- Site-2 phospho / KCC [4, 9]: 0.389 and 0.326 and 0.357 and 0.301
- Site-2 phospho / KCC [4, 10]: 0.233 and 0.197 and 0.175 and 0.227
- Site-2 phospho / KCC [4, 11]: 0.104 and 0.076 and 0.11 and 0.095

SMILES: CN[C@@H]1C[C@H]2O[C@@](C)([C@@H]1OC)n1c3ccccc3c3c4c(c5c6ccccc6n2c5c31)C(=O)NC4 [staurosporine, reference compound]
- SPAK kinase activity signal (Fig S3 source data) ([5]; ATP 0.01 mM, inhibitor 1e-5 uM): 880 and 902
- SPAK kinase activity signal (Fig S3 source data) ([5]; ATP 0.01 mM, inhibitor 0.0001 uM): 874
- SPAK kinase activity signal (Fig S3 source data) ([5]; ATP 0.01 mM, inhibitor 0.001 uM): 875
- SPAK kinase activity signal (Fig S3 source data) ([5]; ATP 0.01 mM, inhibitor 0.03 uM): 535 and 689 and 604
- SPAK kinase activity signal (Fig S3 source data) ([5]; ATP 0.01 mM, inhibitor 0.1 uM): 405 and 495 and 442
- SPAK kinase activity signal (Fig S3 source data) ([5]; ATP 0.01 mM, inhibitor 0.3 uM): 385 and 459 and 417
- SPAK kinase activity signal (Fig S3 source data) ([5]; ATP 0.01 mM, inhibitor 1 uM): 408 and 363
- SPAK kinase activity signal (Fig S3 source data) ([5]; ATP 0.01 mM, inhibitor 10 uM): 206 and 221
- SPAK kinase activity signal (Fig S3 source data) ([5]; ATP 0.01 mM, inhibitor 100 uM): 109 and 126
- SPAK kinase activity signal (Fig S3 source data) ([5]; ATP 0.01 mM, inhibitor 1000 uM): 95 and 64 and 75
- SPAK kinase activity signal (Fig S3 source data) ([5]; ATP 0.1 mM, inhibitor 1e-5 uM): 880 and 897
- SPAK kinase activity signal (Fig S3 source data) ([5]; ATP 0.1 mM, inhibitor 0.0001 uM): 874
- SPAK kinase activity signal (Fig S3 source data) ([5]; ATP 0.1 mM, inhibitor 0.001 uM): 875 and 869
- SPAK kinase activity signal (Fig S3 source data) ([5]; ATP 0.1 mM, inhibitor 0.03 uM): 715
- SPAK kinase activity signal (Fig S3 source data) ([5]; ATP 0.1 mM, inhibitor 0.1 uM): 705 and 625 and 675
- SPAK kinase activity signal (Fig S3 source data) ([5]; ATP 0.1 mM, inhibitor 0.3 uM): 565 and 509 and 529
- SPAK kinase activity signal (Fig S3 source data) ([5]; ATP 0.1 mM, inhibitor 1 uM): 453 and 458 and 431
- SPAK kinase activity signal (Fig S3 source data) ([5]; ATP 0.1 mM, inhibitor 3 uM): 389 and 363
- SPAK kinase activity signal (Fig S3 source data) ([5]; ATP 0.1 mM, inhibitor 100 uM): 112 and 127
- SPAK kinase activity signal (Fig S3 source data) ([5]; ATP 0.1 mM, inhibitor 1000 uM): 114 and 95
- SPAK kinase activity signal (Fig S3 source data) ([5]; ATP 1 mM, inhibitor 1e-5 uM): 880
- SPAK kinase activity signal (Fig S3 source data) ([5]; ATP 1 mM, inhibitor 0.0001 uM): 874
- SPAK kinase activity signal (Fig S3 source data) ([5]; ATP 1 mM, inhibitor 0.001 uM): 875
- SPAK kinase activity signal (Fig S3 source data) ([5]; ATP 1 mM, inhibitor 0.3 uM): 714 and 703
- SPAK kinase activity signal (Fig S3 source data) ([5]; ATP 1 mM, inhibitor 1 uM): 504 and 558 and 522
- SPAK kinase activity signal (Fig S3 source data) ([5]; ATP 1 mM, inhibitor 3 uM): 489 and 412 and 459
- SPAK kinase activity signal (Fig S3 source data) ([5]; ATP 1 mM, inhibitor 10 uM): 406 and 421 and 391
- SPAK kinase activity signal (Fig S3 source data) ([5]; ATP 1 mM, inhibitor 100 uM): 356
- SPAK kinase activity signal (Fig S3 source data) ([5]; ATP 1 mM, inhibitor 1000 uM): 214 and 183
